In US9999622B2, “Pyrazolothiazole compound and medicine comprising same” (NIPPON SHINYAKU CO., LTD., priority 2014, dated 2018):
Where a name gives a salt, the structure may show the parent alone.

Experiments:
JAK1 = target: T1, JAK1 (Homo sapiens, UniProt P23458); assay: JAK tyrosine kinase inhibitory activity in the presence of 1 mM ATP (ELISA), JAK1; type: biochemical
T1 construct: purchased Carna Biosciences, Inc
Method in brief: (§1)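 ELISA read-out: HRP-labelled anti-phosphotyrosine antibody with TMB, absorbance 450 nm, after 1 h kinase reaction at 30 °C in presence of 1 mM ATP. Kinase diluted to 7.5 nM (JAK1) or 0.75 nM (JAK2/JAK3) in Tris-HCl pH 7.5 buffer with DTT; compounds tested in duplicate.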

JAK2 = target: T2, JAK2 (Homo sapiens, UniProt O60674); assay: JAK tyrosine kinase inhibitory activity in the presence of 1 mM ATP (ELISA), JAK2; type: biochemical
T2 construct: purchased Carna Biosciences, Inc
T2 sequence (O60674 whole entry): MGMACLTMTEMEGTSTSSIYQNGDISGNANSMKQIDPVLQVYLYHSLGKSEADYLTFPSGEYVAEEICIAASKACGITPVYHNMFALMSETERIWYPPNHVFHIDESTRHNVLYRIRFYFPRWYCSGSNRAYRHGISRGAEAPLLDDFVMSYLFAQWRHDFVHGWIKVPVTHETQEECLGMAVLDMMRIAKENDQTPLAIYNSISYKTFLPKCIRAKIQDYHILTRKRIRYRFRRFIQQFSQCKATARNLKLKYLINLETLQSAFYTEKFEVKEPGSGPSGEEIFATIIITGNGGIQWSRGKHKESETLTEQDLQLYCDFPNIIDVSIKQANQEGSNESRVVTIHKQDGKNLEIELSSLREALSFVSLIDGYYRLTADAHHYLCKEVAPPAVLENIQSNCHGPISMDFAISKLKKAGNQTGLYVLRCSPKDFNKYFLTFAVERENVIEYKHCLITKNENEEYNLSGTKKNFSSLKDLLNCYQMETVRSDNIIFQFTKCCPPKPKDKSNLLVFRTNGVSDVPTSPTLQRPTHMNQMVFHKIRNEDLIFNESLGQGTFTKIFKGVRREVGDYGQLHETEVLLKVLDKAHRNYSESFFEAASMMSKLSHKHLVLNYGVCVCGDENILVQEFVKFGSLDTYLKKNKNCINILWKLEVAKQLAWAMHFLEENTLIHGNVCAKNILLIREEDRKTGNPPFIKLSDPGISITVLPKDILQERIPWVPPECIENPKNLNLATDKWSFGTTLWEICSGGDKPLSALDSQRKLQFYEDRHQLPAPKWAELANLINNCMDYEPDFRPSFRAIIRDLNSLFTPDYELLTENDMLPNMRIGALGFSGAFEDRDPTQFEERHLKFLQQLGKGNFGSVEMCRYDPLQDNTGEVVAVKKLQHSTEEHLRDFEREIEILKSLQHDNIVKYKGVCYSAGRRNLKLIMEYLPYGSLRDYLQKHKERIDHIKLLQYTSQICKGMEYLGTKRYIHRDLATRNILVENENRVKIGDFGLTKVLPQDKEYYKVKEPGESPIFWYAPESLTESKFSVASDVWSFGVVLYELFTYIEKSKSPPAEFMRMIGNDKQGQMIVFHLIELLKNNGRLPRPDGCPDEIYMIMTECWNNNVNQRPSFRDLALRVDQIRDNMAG
Method in brief: as §1

JAK3 = target: T3, JAK3 (Homo sapiens, UniProt P52333); assay: JAK tyrosine kinase inhibitory activity in the presence of 1 mM ATP (ELISA), JAK3; type: biochemical
T3 construct: purchased Carna Biosciences, Inc
T3 sequence (P52333 1-1124): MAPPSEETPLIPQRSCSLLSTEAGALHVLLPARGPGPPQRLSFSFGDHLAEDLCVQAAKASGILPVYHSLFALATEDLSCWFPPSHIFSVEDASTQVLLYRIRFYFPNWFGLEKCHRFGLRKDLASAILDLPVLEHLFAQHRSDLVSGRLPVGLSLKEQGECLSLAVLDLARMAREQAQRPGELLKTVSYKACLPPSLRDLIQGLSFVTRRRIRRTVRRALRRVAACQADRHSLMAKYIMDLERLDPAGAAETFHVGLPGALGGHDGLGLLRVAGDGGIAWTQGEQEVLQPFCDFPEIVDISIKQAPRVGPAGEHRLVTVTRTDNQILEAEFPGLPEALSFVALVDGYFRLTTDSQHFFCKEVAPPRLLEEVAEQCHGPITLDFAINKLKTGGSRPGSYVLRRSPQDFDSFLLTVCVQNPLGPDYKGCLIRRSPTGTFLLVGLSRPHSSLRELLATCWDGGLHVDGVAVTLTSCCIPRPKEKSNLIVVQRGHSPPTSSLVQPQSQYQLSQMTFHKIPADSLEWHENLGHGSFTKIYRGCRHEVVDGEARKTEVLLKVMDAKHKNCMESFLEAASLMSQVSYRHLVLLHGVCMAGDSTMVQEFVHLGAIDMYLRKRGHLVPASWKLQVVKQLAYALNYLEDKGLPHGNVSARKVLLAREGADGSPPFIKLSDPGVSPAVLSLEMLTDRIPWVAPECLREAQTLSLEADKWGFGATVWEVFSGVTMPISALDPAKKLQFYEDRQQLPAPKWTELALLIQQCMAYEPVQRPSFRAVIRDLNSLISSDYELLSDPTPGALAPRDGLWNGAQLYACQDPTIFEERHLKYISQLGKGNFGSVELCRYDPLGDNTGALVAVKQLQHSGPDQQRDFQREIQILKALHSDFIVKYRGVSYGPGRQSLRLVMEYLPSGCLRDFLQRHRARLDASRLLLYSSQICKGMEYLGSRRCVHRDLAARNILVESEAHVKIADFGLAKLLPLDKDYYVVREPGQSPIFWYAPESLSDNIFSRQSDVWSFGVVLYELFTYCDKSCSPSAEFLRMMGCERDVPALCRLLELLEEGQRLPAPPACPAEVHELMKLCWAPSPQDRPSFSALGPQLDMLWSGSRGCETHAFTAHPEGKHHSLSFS
Method in brief: as §1

[1] = system: Aspergillus-induced airway inflammation model; assay: Inhibitory effect on Aspergillus-induced airway inflammation model; type: in vivo; settings: mice; for inhibition in vivo at 10000 µg/mL, 100 mg/kg: Mus musculus, Eosinophil, po, 240 h, 10 mg/mL suspension at 10 mL/kg twice a day Day 0 to Day 9, BALF collected at Day 10, read-out: Inhibition rate on count of invasive eosinophil in BALF (%); for Inhibition rate on count of invasive eosinophil in BALF (%): oral, 10 mg/mL suspension at 10 mL/kg twice a day Day 0 to Day 9, BALF collected at Day 10
Description: Aspergillus fumigatus extracts (Greer laboratories, Inc.) were adjusted to 400 μg/mL with PBS. The Aspergillus fumigatus solutions thus prepared were administered to mice as nasal drops (50 μL) on Day 0, Day 1, Day 7 and Day 8. The nasal drop was administered one hour after the administration of test compounds in the morning. The test compound was administered twice a day in the morning and evening of Day 0 to Day 9. The test compound was suspended in 0.5% methylcellulose at 10 mg/mL, and orally administered at the dosage of 10 mL/kg. The bronchoalveolar lavage fluid (BALF) was collected at Day 10, and the total white blood cell count in BALF was measured using Celltac (NIHON KOHDEN). The ratio of eosinophil in total white blood cell was calculated using ADVIA 120 (Siemens Healthcare Diagnostics), and the ratio was multiplied by the total white blood cell count to determine the eosinophil count in BALF. The inhibition rate of the test compound was determined, assuming the inhibitory ratio in the treatment with Aspergillus fumigatus extract and 0.5% methylcellulose as 0% and the inhibitory ratio in the treatment without Aspergillus fumigatus extract but with 0.5% methylcellulose as 100%.

T1 sequence (P23458 whole entry): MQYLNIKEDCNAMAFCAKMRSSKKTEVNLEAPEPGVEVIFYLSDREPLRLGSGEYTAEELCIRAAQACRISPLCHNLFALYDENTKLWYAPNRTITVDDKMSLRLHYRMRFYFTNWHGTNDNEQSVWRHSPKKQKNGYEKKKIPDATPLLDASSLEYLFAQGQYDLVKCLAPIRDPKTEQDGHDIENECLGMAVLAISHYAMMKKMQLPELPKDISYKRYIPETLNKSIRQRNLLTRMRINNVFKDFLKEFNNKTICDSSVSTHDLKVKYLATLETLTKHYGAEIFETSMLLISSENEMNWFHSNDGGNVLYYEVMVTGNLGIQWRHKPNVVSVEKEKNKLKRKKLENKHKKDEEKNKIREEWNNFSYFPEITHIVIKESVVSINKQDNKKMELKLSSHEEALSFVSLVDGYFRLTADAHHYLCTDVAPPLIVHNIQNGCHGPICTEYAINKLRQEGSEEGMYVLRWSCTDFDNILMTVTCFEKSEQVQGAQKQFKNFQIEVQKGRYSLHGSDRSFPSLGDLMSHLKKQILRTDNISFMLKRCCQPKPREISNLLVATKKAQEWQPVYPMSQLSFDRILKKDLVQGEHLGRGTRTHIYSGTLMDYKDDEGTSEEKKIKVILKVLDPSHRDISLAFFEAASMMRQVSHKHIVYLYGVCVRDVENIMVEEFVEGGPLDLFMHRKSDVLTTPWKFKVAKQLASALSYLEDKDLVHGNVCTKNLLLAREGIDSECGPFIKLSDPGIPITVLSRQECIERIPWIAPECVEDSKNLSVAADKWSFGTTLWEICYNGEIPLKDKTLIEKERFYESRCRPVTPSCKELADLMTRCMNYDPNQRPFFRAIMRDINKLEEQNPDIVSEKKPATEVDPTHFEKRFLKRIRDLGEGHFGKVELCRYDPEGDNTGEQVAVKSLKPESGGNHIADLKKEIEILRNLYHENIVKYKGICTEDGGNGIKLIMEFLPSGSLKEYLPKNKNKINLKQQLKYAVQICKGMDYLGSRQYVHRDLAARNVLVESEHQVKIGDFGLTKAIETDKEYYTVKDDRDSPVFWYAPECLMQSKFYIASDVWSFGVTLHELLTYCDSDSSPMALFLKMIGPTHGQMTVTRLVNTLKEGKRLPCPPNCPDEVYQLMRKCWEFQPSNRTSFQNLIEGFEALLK

SMILES | IC50 (JAK1) [nM] | IC50 (JAK2) [nM] | IC50 (JAK3) [nM] | inhibition in vivo at 10000 µg/mL, 100 mg/kg [1] [%] | Inhibition rate on count of invasive eosinophil in BALF (%) [1] [%]
C[C@H](Nc1cc(C(=O)N2CCC(NC(=O)C3CC3)CC2)nc(-c2cnn3ccsc23)n1)C1CC1 [Example 1, N-(1-{[6-{[(1S)-1-Cyclopropylethyl]amino}-2-(pyrazolo[5,1-b][1,3]thiazol-7-yl)pyrimidin-4-yl]carbonyl}piperidin-4-yl)cyclopropanecarboxamide hydrochloride] | 52 | 3400 | 3400 | 43 | –
C[C@@H](Nc1cc(C(=O)N2CCC(NC(=O)C3CC3)CC2)nc(-c2cnn3ccsc23)n1)C(C)(C)C [Example 16, N-(1-{[6-{[(2R)-3,3-Dimethylbutan-2-yl]amino}-2-(pyrazolo[5,1-b][1,3]thiazol-7-yl)pyrimidin-4-yl]carbonyl}piperidin-4-yl)cyclopropanecarboxamide] | 53 | 2200 | 2200 | 33 | –
C[C@H](Nc1cc(C(=O)N2CCC(O)CC2)nc(-c2cnn3ccsc23)n1)C1CC1 [Example 20, [6-{[(1S)-1-Cyclopropylethyl]amino}-2-(pyrazolo[5,1-b][1,3]thiazol-7-yl)pyrimidin-4-yl](4-hydroxypiperidin-1-yl)methanone hydrochloride] | 1400 | 4700 | 4200 | 61 | –
C[C@H](Nc1cc(C(=O)N2CCC(NC(=O)OC(C)(C)CF)CC2)nc(-c2cnn3ccsc23)n1)C1CC1 [Example 21, 1-Fluoro-2-methylpropan-2-yl (1-{[6-{[(1S)-1-cyclopropylethyl]amino}-2-(pyrazolo[5,1-b][1,3]thiazol-7-yl)pyrimidin-4-yl]carbonyl}piperidin-4-yl)carbamate hydrochloride] | 230 | 2200 | > 10000 | 47 | –
COC(=O)NC1CCN(C(=O)c2cc(N[C@@H](C)C(C)(C)C)nc(-c3cnn4ccsc34)n2)CC1 [Example 22, Methyl (1-{[6-{[(2S)-3,3-dimethylbutan-2-yl]amino}-2-(pyrazolo[5,1-b][1,3]thiazol-7-yl)pyrimidin-4 yl]carbonyl}piperidin-4-yl)carbamate] | 130 | 800 | 3700 | 57 | –
C[C@H](Nc1cc(C(=O)N2CCC(O)CC2)nc(-c2cnn3ccsc23)n1)C(C)(C)C [Example 23, [6-{[(2S)-3,3-Dimethylbutan-2-yl]amino}-2-(pyrazolo[5,1-b][1,3]thiazol-7-yl)pyrimidin-4-yl](4-hydroxypiperidin-1-yl)methanone] | 860 | 870 | 3300 | 31 | –
COC(=O)NC1CCN(C(=O)c2cc(N[C@H](C)C(C)C)nc(-c3cnn4ccsc34)n2)CC1 [Example 24, Methyl (1-{[6-{[(2R)-3-methylbutan-2-yl]amino}-2-(pyrazolo[5,1-b][1,3]thiazol-7-yl)pyrimidin-4-yl]carbonyl}piperidin-4-yl)carbamate hydrochloride] | 290 | 1500 | 4200 | 35 | –
COC(=O)NC1CCN(C(=O)c2cc(N[C@@H](C)C(C)C)nc(-c3cnn4ccsc34)n2)CC1 [Example 25, Methyl (l-{[6-{[(2S)-3-methylbutan-2-yl]amino}-2-(pyrazolo[5,1-b][1,3]thiazol-7-yl)pyrimidin-4-yl]carbonyl}piperidin-4-yl)carbamate hydrochloride] | 200 | 800 | 2000 | 30 | –
COC(=O)NC1CCN(C(=O)c2cc(N[C@@H](C)C3CC3)nc(-c3cnn4ccsc34)n2)CC1 [Example 26, Methyl (1-{[6-{[(1S)-1-cycloproropylethyl]amino}-2-(pyrazolo[5,1-b][1,3]thiazol-7-yl)pyrimidin-4-yl]carbonyl}piperidin-4-yl)carbamate] | 75 | 2100 | 2100 | 58 | –
COC(=O)NC1CCN(C(=O)c2cc(N[C@@H](C)C3CC3)nc(-c3cnn4ccsc34)n2)CC1.Cl [Example 27, Methyl (1-{[6-{[(1S)-1-cyclopropylethyl]amino}-2-(pyrazolo[5,1-b][1,3]thiazol-7-yl)pyrimidin-4-yl]carbonyl}piperidin-4-yl)carbamate hydrochloride] | 140 | 2500 | 4300 | – | 62
CCOC(=O)NC1CCN(C(=O)c2cc(N[C@@H](C)C3CC3)nc(-c3cnn4ccsc34)n2)CC1 [Example 28, Ethyl (1-{[6-{[(1S)-1-cyclopropylethyl]amino}-2-(pyrazolo[5,1-b][1,3]thiazol-7-yl)pyrimidin-4-yl]carbonyl}piperidin-4-yl)carbamate] | 120 | 2100 | > 10000 | 52 | –
C[C@@H](C1CC1)N(C)c1cc(C(=O)N2CCC(NC(=O)C3CC3)CC2)nc(-c2cnn3ccsc23)n1 [Example 33, N-(1-{[6-{[(1S)-1-Cyclopropylethyl](methyl)amino}-2-(pyrazolo[5,1-b][1,3]thiazol-7-yl)pyrimidin-4-yl]carbonyl}piperidin-4-yl)cyclopropanecarboxamide hydrochloride] | 130 | 1700 | 1700 | 37 | –
CC(C)OC(=O)NC1CCN(C(=O)c2cc(N[C@@H](C)C3CC3)nc(-c3cnn4ccsc34)n2)CC1 [Example 41, Propan-2-yl (1-{[6-{[(1S)-1-cyclopropylethyl]amino}-2-(pyrazolo[5,1-b][1,3]thiazol-7-yl)pyrimidin-4-yl]carbonyl}piperidin-4-yl)carbamate] | 96 | 2700 | > 10000 | 51 | –
CC(C)(C)Nc1cc(C(=O)N2CCC(O)CC2)nc(-c2cnn3ccsc23)n1 [Example 58, [6-(tert-Butylamino)-2-(pyrazolo[5,1-b][1,3]thiazol-7-yl)pyrimidin-4-yl](4-hydroxypiperidin-1-yl)methanone] | 400 | 2900 | > 10000 | 37 | –
C[C@@H](Nc1cc(C(=O)N2CCC(O)CC2)nc(-c2cnn3ccsc23)n1)C(C)(C)C [Example 62, [6-{[(2R)-3,3-Dimethylbutan-2-yl]amino}-2-(pyrazolo[5,1-b][1,3]thiazol-7-yl)pyrimidin 4 yl](4-hydroxypiperidin-1-yl)methanone hydrochloride] | 10 | 1000 | 1100 | 36 | –
CC[C@@H](C)Nc1cc(C(=O)N2CCC(NC(=O)OC)CC2)nc(-c2cnn3ccsc23)n1.Cl [Example 127, Methyl [1-({6-[(2R)-butan-2-ylamino]-2-(pyrazolo[5,1-b][1,3]thiazol-7-yl)pyrimidin-4-yl}carbonyl)piperidin-4-yl]carbamate hydrochloride] | 590 | – | – | – | 38
